{
  "source": "paper PMC9828337",
  "about": "(Angewandte Chemie (International Ed. in English), 2022)",
  "test_system": "CurKC-CurALP and CurKCkinase-CurKClyase",
  "experiment": "MST binding with or without an ATP analog",
  "set-up": "species or system Thermomonospora curvata DSM43183",
  "details": "three replicates",
  "data": [
    {"smiles": "Nc1ncnc2c1ncn2[C@@H]1O[C@H](COP(=O)(O)OP(=O)(O)OP(=O)(O)O)[C@@H](O)[C@H]1O", "note": "[ATP]", "values": [
      {"measurement": "effect on leader binding and lyase–kinase association", "value": "little impact on the leader binding and lyase–kinase association"}
    ]}
  ]
}
